# Measurements as given in patent US20250034170A1, “SMALL MOLECULE MODULATORS OF GLUCOCEREBROSIDASE ACTIVITY AND USES THEREOF” (Vanqua Bio, Inc., priority 2021, published 2025).
# Molecular target: T1, GCase (Homo sapiens, UniProt P04062)
# T1 construct: endogenous in cells; host or cells: HeLa cells
# T1 sequence (P04062 40-536): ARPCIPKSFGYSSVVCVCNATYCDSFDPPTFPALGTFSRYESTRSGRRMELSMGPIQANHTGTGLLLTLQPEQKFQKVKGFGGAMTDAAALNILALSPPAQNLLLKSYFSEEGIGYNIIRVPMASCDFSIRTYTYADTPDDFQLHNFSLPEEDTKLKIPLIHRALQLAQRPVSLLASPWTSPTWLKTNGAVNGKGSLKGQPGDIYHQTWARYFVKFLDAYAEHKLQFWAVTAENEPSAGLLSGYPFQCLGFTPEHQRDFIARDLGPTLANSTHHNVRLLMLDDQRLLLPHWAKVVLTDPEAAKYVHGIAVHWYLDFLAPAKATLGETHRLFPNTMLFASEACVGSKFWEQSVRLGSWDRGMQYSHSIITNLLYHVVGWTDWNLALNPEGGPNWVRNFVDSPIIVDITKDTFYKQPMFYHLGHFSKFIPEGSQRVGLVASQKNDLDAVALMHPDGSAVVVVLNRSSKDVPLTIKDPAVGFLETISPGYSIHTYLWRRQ
# Test: activation of GCase in a live cell PFB assay in HELA cells
# Format: cell-based
# Conditions: EC50 given as range classes
# Method: Exemplary compounds were evaluated for activation of GCase in a live cell PFB assay in HELA cells (essentially as described in Ysselstein et al., “LRRK2 kinase activity regulates lysosomal glucocerebrosidase in neurons derived from Parkinson's disease patients” Nature Communications (2019) 10:5570). […] EC50 ranges: A: <10 μM; B: >10-50 μM; C: >50-100 μM; D: >100 μM.
row,SMILES,EC50 [µM]
1,Cc1nc(N2CCC3(CCN(c4ncc5c(C)nn(CC(F)(F)F)c5n4)C3)C2)cc(C(F)(F)F)n1 (stereo not shown) [Cmpd 616],10 to 50
2,Cc1cc(N2CC3(CCN(c4ncc5cnn(C6COC6)c5n4)C3)C2)nc(C(F)(F)F)n1 [Cmpd 590],10 to 50
3,CCN1C(=O)N(c2ccnc(C(F)(F)F)c2)C(=O)C12CCN(c1cnc3cnn(C4COC4)c3n1)CC2 [Cmpd 983],10 to 50
4,Cn1c(N2CCC3(CN(c4ccc(C(F)(F)F)nc4)C3)C2)nc2c(cnn2CC(F)F)c1=O [Cmpd 997],< 10
5,FC(F)Cn1ncc2ncc(N3CCC4(CCN(c5cncc(C(F)(F)F)n5)CC4)CC3)nc21 [Cmpd 813],< 10
6,FC(F)(F)c1cc(N2CC3(CCN(c4cnc5cnn(C6COC6)c5n4)C3)C2)ccn1 [Cmpd 987],> 100
7,"FC(F)Cn1ncc2ncc(N3CC4(CCN(c5cc(C(F)(F)F)ccn5)C4)C3)nc21 [Compound 181, 2-[1-(2,2-difluoroethyl)-1H-pyrazolo[3,4-b]pyrazin-6-yl]-6-[4-(trifluoromethyl)pyridin-2-yl]-2,6-diazaspiro[3.4]octane]",10 to 50
8,Cn1c(=O)n(C2COC2)c2ncc(N3CCC4(CN(c5ccnc(C(F)(F)F)c5)C4)C3)nc21 [Cmpd 979],< 10

# Same assay, conditions: activation of GCase, EC50 ranges
row,SMILES,EC50 [µM]
1,Cc1nc(N2CC3(CCN(c4cncc(-c5ccnn5CC(F)(F)F)n4)C3)C2)cc(C(F)(F)F)n1 [Cmpd 1121],> 100
2,FC(F)Cn1ncc2ncc(N3CCC4(CCN(c5ccc(C(F)(F)F)nc5)C4)C3)nc21 (stereo not shown) [Cmpd 482],10 to 50
3,COc1nn(CC(F)F)c2nc(N3CCC4(CN(c5cc(C)nc(C(F)(F)F)n5)C4)C3)cnc12 [Cmpd 1097],10 to 50
4,CCn1c(=O)n(CC(F)F)c2nc(N3CCC4(CN(c5cc(C(F)(F)F)nc(C)n5)C4)C3)cnc21 [Cmpd 1074],< 10
5,"Cc1nn(CC(F)F)c2nc(N3CC4(CCCN(c5ccc(C(F)(F)F)nc5)C4)C3)cnc12 [Compound 137, 2-[1-(2,2-difluoroethyl)-3-methyl-1H-pyrazolo[3,4-b]pyrazin-6-yl]-6-[6-(trifluoromethyl)pyridin-3-yl]-2,6-diazaspiro[3.5]nonane]",> 100
6,Cn1c(N2CCC3(CCN(c4ccc(C(F)(F)F)nc4)C3)CC2)nc2c(cnn2CC(F)F)c1=O [Cmpd 1054],< 10
7,COc1nn(CC(F)F)c2nc(N3CCC4(CCN(c5cc(C(F)(F)F)nc(C)n5)C4)CC3)cnc12 [Cmpd 1096],< 10
8,"Cc1nn(CC(F)F)c2nc(N3CCC4(CC3)CCN(c3cc(C(F)(F)F)ccn3)C4=O)cnc12 [Compound 168, 8-[1-(2,2-difluoroethyl)-3-methyl-1H-pyrazolo[3,4-b]pyrazin-6-yl]-2-[4-(trifluoromethyl)pyridin-2-yl]-2,8-diazaspiro[4.5]decan-1-one]",< 10
9,CCc1nn(C2COC2)c2nc(N3CCC4(CN(c5cc(C(F)(F)F)nc(C)n5)C4)C3)cnc12 [Cmpd 1065],10 to 50
10,COc1nn(CC(F)F)c2nc(N3CCC4(CC3)CC(=O)N(c3nccc(C(F)(F)F)n3)C4)cnc12 [Cmpd 942],10 to 50
11,Cc1cc(N2CC3(CCN(c4cnc5c(C)nn(C6COC6)c5n4)CC3)CC2=O)nc(C(F)(F)F)n1 [Cmpd 458],< 10
